Source: patent publication US20110319362A1, “STAT3 LIGANDS AND THERAPEUTIC USES THEREOF” (priority 2008, published 2011)
Like-named read-outs stand apart in the source and are kept apart here.

Tests used:
[1] = system: MDA-MB-468 cancer cell line; test: Cell growth assay (WST-8); type: cell-based; conditions: Homo sapiens, MDA-MB-468, 96 h; WST-8, 4 days; read-out: Inhibition of cell growth IC50, MDA-MB-468 cancer cell line
Method: (§1) The effect of STAT3 compounds on cell growth was evaluated by a WST-8 [2-(2-methoxy-4-nitrophenyl)-3-(4-nitrophenyl)-5-(2,4-disulfophenyl)-2H-tetrazolium, monosodium salt assay (Dojindo Molecular Technologies, Inc). Cells (3000-4000 cells in each well) were cultured in 96-well tissue culture plates in medium (200 μL) containing various concentrations of STAT3 compounds for 4 days. At the end of incubation, WST-8 dye (20 μL) was added to each well and incubated for an additional 1-3 h, and then the absorbance was measured in a microplate reader (Molecular Devices) at 450 nm. Cell growth inhibition was evaluated as the ratio of the absorbance of the sample to that of the control.

[2] = system: MDA-MB-231 cancer cell line; test: Cell growth assay (WST-8); type: cell-based; conditions: Homo sapiens, MDA-MB-231, 96 h; WST-8, 4 days; read-out: Inhibition of cell growth IC50, MDA-MB-231 cancer cell line
Method: as §1

STAT3 protein = target: T1, STAT3 protein (Homo sapiens, UniProt P40763); test: In vitro competitive STAT3 binding assay (fluorescence polarization)
T1 construct: human STAT3 protein (residues 122-722) fused to His-tag; His-tag
T1 sequence (P40763 122-722): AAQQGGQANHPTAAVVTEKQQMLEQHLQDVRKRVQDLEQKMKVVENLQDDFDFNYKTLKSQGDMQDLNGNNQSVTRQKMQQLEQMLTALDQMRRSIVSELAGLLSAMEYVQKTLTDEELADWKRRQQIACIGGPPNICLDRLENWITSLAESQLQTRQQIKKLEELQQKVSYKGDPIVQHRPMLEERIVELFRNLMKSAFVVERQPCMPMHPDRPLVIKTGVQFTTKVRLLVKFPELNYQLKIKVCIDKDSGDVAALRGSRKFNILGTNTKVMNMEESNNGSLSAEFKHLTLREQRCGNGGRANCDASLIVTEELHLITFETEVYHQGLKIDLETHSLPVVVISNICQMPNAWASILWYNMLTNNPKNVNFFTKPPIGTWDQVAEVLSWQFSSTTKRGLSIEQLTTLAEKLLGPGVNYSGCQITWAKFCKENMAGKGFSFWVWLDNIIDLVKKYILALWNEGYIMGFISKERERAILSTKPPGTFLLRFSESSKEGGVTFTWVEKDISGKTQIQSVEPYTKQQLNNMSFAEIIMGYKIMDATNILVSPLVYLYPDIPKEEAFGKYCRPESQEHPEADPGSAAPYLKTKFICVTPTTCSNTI
Text: To quantitatively determine the binding affinities of STAT3 inhibitors to STAT3 protein, a sensitive and quantitative in vitro binding assay was developed based upon fluorescence polarization (FP) method. For this FP assay, 5-carboxyfluorescein (5-Fam) was coupled to a phosphopeptide (phospho-Tyr-Leu-Pro-Gln-Thr-Val-amide) with two beta-alanine and one glycine residues as the spacer between 5-Fam and the phosphopeptide to obtain 5-Fam-beta-Ala-beta-Ala-Gly-phospho-Tyr-Leu-Pro-Gln-Thr-Val-amide as the fluorescently tagged tracer, which was named as STT2 peptide. […] The recombinant human STAT3 protein (residues 122-722) fused to His-tag was stable and soluble.
Competitive binding experiments were carried out using 150 nM of STAT3 protein and 5 nM of STT2 peptide with different concentrations of a tested STAT3 inhibitor. For each experiment, two controls were included. One control contained STAT3 protein and STT2 peptide, and the second control contained STT2 peptide only. The polarization values were measured after 2-3 hours of incubation using an ULTRA READER (Tecan U.S. Inc., Research Triangle Park, N.C.). IC50 values, the inhibitor concentration at which 50% of the fluorescently tagged STT2 peptide is displaced by STAT3 inhibitors, was determined from a plot using nonlinear least-squares analysis using GRAPHPAD PRISM software (GraphPad Software, Inc., San Diego, Calif.). […]

[3] = FP competitive binding, fluorescently tagged STT2 peptide tracer, read-out: Binding affinities to STAT3 IC50

In the case of `N[C@@H](Cc1ccc(OP(=O)(O)O)cc1)C(=O)N[C@H]1CCCCC2CC[C@@H](C(=O)N[C@@H](CCC(=O)NC(c3ccccc3)(c3ccccc3)c3ccccc3)C(=O)NCc3ccccc3)N2C1=O` (stereo partly drawn), the IC50 [1] is reported as < 10 µM, the IC50 [2] is reported as < 10 µM and the IC50 (STAT3 protein; [3]) is reported as < 10 µM.
With `NC(=O)CC[C@H](NC(=O)[C@@H]1CCC2CCCC[C@H](NC(=O)[C@@H](N)Cc3ccc(OP(=O)(O)O)cc3)C(=O)N21)C(=O)NCc1ccccc1` (stereo partly drawn) the IC50 [1] was > 100 µM, the IC50 [2] was > 20 µM and the IC50 (STAT3 protein) was < 1 µM.
`CC(=O)N[C@@H](Cc1ccc(OC(C(=O)O)C(=O)O)cc1)C(=O)N[C@H]1CCCCC2CC[C@@H](C(=O)N[C@@H](CCC(N)=O)C(=O)NCc3ccccc3)N2C1=O` (stereo partly drawn) was tested, and the IC50 [1] was > 100 µM, the IC50 [2] was > 50 µM and the IC50 (STAT3 protein; [3]) was < 10 µM.
For `O=C(CCc1ccccc1)N[C@@H](Cc1ccc(OP(=O)(O)O)cc1)C(=O)N[C@H]1CCCCC2CC[C@@H](C(=O)N[C@@H](CCC(=O)NC(c3ccccc3)(c3ccccc3)c3ccccc3)C(=O)NCc3ccccc3)N2C1=O` (stereo partly drawn), the IC50 [1] was > 50 µM, the IC50 [2] was > 100 µM and the IC50 (STAT3 protein; [3]) was < 20 µM.
In the case of `CCOC(=O)COc1ccc(C[C@H](NC(C)=O)C(=O)N[C@H]2CCCCC3CC[C@@H](C(=O)N[C@@H](CCC(N)=O)C(=O)NCc4ccccc4)N3C2=O)cc1` (stereo partly drawn), the IC50 [1] is reported as > 100 µM, the IC50 [2] is reported as > 100 µM and the IC50 (STAT3 protein; [3]) is reported as > 100 µM.
In the case of `CCOC(=O)C(Oc1ccc(C[C@H](NC(C)=O)C(=O)N[C@H]2CCCCC3CC[C@@H](C(=O)N[C@@H](CCC(N)=O)C(=O)NCc4ccccc4)N3C2=O)cc1)C(=O)OCC` (stereo partly drawn), the IC50 [1] is reported as > 100 µM, the IC50 [2] is reported as > 30 µM and the IC50 (STAT3 protein; [3]) is reported as > 100 µM.
With `COP(=O)(OC)Oc1ccc(C[C@H](N)C(=O)N[C@H]2CCCCC3CC[C@@H](C(=O)N[C@@H](C)C(=O)NCc4ccccc4)N3C2=O)cc1` (stereo partly drawn) the IC50 [1] was > 100 µM, the IC50 [2] was > 50 µM and the IC50 (STAT3 protein) was > 100 µM.
In the case of `CN(C)CCCCNC(=O)[C@@H]1CCC2CCCC[C@H](NC(=O)[C@H](Cc3ccc(OP(=O)(O)O)cc3)NC(=O)OCc3ccccc3)C(=O)N21` (stereo partly drawn), the IC50 [1] is reported as > 100 µM, the IC50 [2] is reported as > 100 µM and the IC50 (STAT3 protein; [3]) is reported as < 30 µM.
`CP(=O)(O)Cc1ccc(CCC(=O)N[C@H]2CCCCC3CC[C@@H](C(=O)N[C@@H](CCC(N)=O)C(=O)NCc4ccccc4)N3C2=O)cc1` (stereo partly drawn) was tested, and the IC50 [1] was > 100 µM, the IC50 [2] was > 100 µM and the IC50 (STAT3 protein; [3]) was > 100 µM.
For `CP(=O)(O)CCCCCC(=O)N[C@H]1CCCCC2CC[C@@H](C(=O)N[C@@H](CCC(N)=O)C(=O)NCc3ccccc3)N2C1=O` (stereo partly drawn), the IC50 [1] was > 100 µM, the IC50 [2] was > 100 µM and the IC50 (STAT3 protein; [3]) was > 100 µM.
For `CN[C@@H](Cc1ccc(OC(C(=O)O)C(=O)O)cc1)C(=O)N[C@H]1CCCCC2CC[C@@H](C(=O)N[C@@H](CCCN)C(=O)NCc3ccccc3)N2C1=O` (stereo partly drawn), the IC50 [1] was > 100 µM, the IC50 [2] was > 100 µM and the IC50 (STAT3 protein; [3]) was > 10 µM.
`CN[C@@H](Cc1ccc(OC(C(=O)O)C(=O)O)cc1)C(=O)N[C@H]1CCCCC2CC[C@@H](C(=O)N[C@@H](Cc3c[nH]cn3)C(=O)NCc3ccccc3)N2C1=O` (stereo partly drawn) was tested, and the IC50 [1] was > 100 µM, the IC50 [2] was > 100 µM and the IC50 (STAT3 protein; [3]) was > 10 µM.
In the case of `CN[C@H](Cc1ccc(OCP(=O)(O)O)cc1)C(=O)N[C@H]1CCCCC2CC[C@@H](C(=O)N[C@@H](Cc3c[nH]cn3)C(=O)NCc3ccccc3)N2C1=O` (stereo partly drawn), the IC50 [1] is reported as > 100 µM, the IC50 [2] is reported as > 100 µM and the IC50 (STAT3 protein; [3]) is reported as < 100 µM.
In the case of `CN(C)[C@@H](Cc1ccc(OP(=O)(O)O)cc1)C(=O)N[C@H]1CCCCC2CC[C@@H](C(=O)N[C@@H](CNC(=N)N)C(=O)NCc3ccccc3)N2C1=O` (stereo partly drawn), the IC50 [1] is reported as > 100 µM, the IC50 [2] is reported as > 50 µM and the IC50 (STAT3 protein; [3]) is reported as < 100 µM.
`CC(=O)N1CCC2CC[C@@H](C(=O)N[C@@H](CCC(N)=O)C(=O)NCc3ccccc3)N2C(=O)[C@@H](NC(=O)[C@@H](N)Cc2ccc(OP(=O)(O)O)cc2)C1` (stereo partly drawn) was tested, and the IC50 [1] was > 100 µM, the IC50 [2] was > 50 µM and the IC50 (STAT3 protein; [3]) was < 5 µM.
`CN[C@@H](Cc1ccc(OP(=O)(O)O)cc1)C(=O)N[C@H]1CCCCC2CC[C@@H](C(=O)N[C@@H](Cc3c[nH]cn3)C(=O)NCc3ccccc3)N2C1=O` (stereo partly drawn) was tested, and the IC50 [1] was > 100 µM, the IC50 [2] was > 50 µM and the IC50 (STAT3 protein; [3]) was < 30 µM.
`CCCCCCCCCCCCCCCCNC(=O)[C@H](CCC(N)=O)NC(=O)[C@@H]1CCC2CCCC[C@H](NC(=O)[C@@H](N)Cc3ccc(OP(=O)(O)O)cc3)C(=O)N21` (stereo partly drawn) was tested, and the IC50 [1] was < 50 µM, the IC50 [2] was < 50 µM and the IC50 (STAT3 protein; [3]) was > 5 µM.
